According to the Kinase Knowledgebase extract (Sharma et al. 2016):

What follows are compounds tested against EGFR (UniProt P00533).
Chain of EGFR (P00533 whole entry, looked up): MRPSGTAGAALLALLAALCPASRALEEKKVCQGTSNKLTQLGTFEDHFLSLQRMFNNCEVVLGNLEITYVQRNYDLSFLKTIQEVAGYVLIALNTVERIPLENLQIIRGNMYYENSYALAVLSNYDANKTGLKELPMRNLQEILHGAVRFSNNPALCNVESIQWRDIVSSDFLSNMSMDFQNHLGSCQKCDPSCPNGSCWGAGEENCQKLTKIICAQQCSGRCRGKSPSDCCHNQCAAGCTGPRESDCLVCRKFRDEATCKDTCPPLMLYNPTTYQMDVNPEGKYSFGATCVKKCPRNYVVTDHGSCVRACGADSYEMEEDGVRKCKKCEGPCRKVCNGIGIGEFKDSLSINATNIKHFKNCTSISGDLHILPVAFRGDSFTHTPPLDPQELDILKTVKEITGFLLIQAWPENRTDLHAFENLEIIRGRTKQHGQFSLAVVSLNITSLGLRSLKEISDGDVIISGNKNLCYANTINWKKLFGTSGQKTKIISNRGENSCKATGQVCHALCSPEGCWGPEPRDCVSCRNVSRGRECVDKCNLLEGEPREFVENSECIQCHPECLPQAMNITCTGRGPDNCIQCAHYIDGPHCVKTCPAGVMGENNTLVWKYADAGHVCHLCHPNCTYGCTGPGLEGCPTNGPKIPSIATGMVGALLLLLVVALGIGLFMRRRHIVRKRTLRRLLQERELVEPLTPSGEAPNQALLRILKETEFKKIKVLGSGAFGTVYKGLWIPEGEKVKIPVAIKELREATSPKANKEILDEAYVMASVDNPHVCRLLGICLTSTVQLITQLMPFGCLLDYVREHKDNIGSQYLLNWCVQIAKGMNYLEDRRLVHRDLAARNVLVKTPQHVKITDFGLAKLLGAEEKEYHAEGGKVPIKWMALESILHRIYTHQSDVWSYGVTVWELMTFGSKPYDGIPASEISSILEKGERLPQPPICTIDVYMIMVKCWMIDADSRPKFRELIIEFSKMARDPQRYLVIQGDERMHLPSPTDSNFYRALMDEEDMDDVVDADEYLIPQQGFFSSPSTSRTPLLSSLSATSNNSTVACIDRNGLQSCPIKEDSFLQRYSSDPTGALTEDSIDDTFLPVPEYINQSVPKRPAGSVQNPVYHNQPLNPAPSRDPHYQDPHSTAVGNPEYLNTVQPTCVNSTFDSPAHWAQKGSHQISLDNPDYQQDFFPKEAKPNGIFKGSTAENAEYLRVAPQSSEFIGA

IC50 [nM]	SMILES
12	OCCN(CCO)c1cc2ncnc(Nc3cccc(Br)c3)c2cn1
7.2	NNc1cc2ncnc(Nc3cccc(Br)c3)c2cn1
2.6	CN(CCO)c1cc2ncnc(Nc3cccc(Br)c3)c2cn1
16.2	CN(CC(=O)O)c1cc2ncnc(Nc3cccc(Br)c3)c2cn1
14.1	OCN(CO)c1cc2ncnc(Nc3cccc(Br)c3)c2cn1
29.5	CC(=O)Nc1cc2ncnc(Nc3cccc(Br)c3)c2cn1
8.9	CN(C)CCCNc1cc2ncnc(Nc3cccc(Br)c3)c2cn1
0.25	OCCNc1cc2ncnc(Nc3cccc(Br)c3)c2cn1
3.2	CN(CC(O)CO)c1cc2ncnc(Nc3cccc(Br)c3)c2cn1 (stereo unspecified)
45.7	CN(C)CCNc1cc2ncnc(Nc3cccc(Br)c3)c2cn1
39.8	COc1cc2ncnc(Nc3cccc(Br)c3)c2cn1
40	CN(C)CCN(C)c1cc2ncnc(Nc3cccc(Br)c3)c2cn1

The next lines start with the compound.

SMILES	IC50 [nM]
CN(C)CCCCNc1cc2ncnc(Nc3cccc(Br)c3)c2cn1	7.4
Brc1cccc(Nc2ncnc3cc(NCCN4CCOCC4)ncc23)c1	3.2
OCCN(CCO)CCNc1cc2ncnc(Nc3cccc(Br)c3)c2cn1	9.3
O=C(O)CCCNc1cc2ncnc(Nc3cccc(Br)c3)c2cn1	0.28
Brc1cccc(Nc2ncnc3cnc(NCCc4c[nH]cn4)nc23)c1	0.25
Cc1cccc(Nc2ncnc3cc(NCCCCN(C)C)ncc23)c1	5.5
Brc1cccc(Nc2ncnc3cc(NCCCn4ccnc4)ncc23)c1	0.512
OCC(O)CNc1cc2ncnc(Nc3cccc(Br)c3)c2cn1 (stereo unspecified)	0.93
Cc1cccc(Nc2ncnc3cc(NCCCN4CCN(C)CC4)ncc23)c1	5.6
Brc1cccc(Nc2ncnc3cnc(NCCN4CCOCC4)nc23)c1	0.813
COc1cccc(Nc2ncnc3cc(N)ncc23)c1	132
O=C(O)CNc1cc2ncnc(Nc3cccc(Br)c3)c2cn1	1.5
Brc1cccc(Nc2ncnc3cc(NCCCCN4CCOCC4)ncc23)c1	5.5
CNc1ccc2ncnc(Nc3cccc(Br)c3)c2n1	3.2
Cc1cccc(Nc2ncnc3cc(NCCCn4ccnc4)ncc23)c1	3.5
Brc1cccc(Nc2ncnc3cc(NCCCN4CCOCC4)ncc23)c1	1.9
Nc1cc2ncnc(Nc3ccc(Br)cc3)c2cn1	25.7
Brc1cccc(Nc2ncnc3cc(NCCc4c[nH]cn4)ncc23)c1	0.912
O=C(O)CCNc1cc2ncnc(Nc3cccc(Br)c3)c2cn1	0.62
Fc1ccc2c(Nc3cccc(Br)c3)ncnc2n1	692
CN(C)CCCCCNc1cc2ncnc(Nc3cccc(Br)c3)c2cn1	8.5
OCCN(CCO)CCCNc1cc2ncnc(Nc3cccc(Br)c3)c2cn1	1.2
O=S(=O)(O)CCNc1cc2ncnc(Nc3cccc(Br)c3)c2cn1	1.4
CN1CCN(CCCNc2cc3ncnc(Nc4cccc(Br)c4)c3cn2)CC1	5
